Source: patent publication US20260167614A1, “IDENTIFICATION OF SMALL MOLECULES THAT RECRUIT AND ACTIVATE RNASE L” (UNIVERSITY OF FLORIDA RESEARCH FOUNDATION, INCORPORATED, priority 2022, published 2026)
Changes are numbered by the printed parent chain.

What was measured:
RNase L [1] = target: T1, RNase L (Homo sapiens, UniProt Q05823); assay: RNase L dimerization in vitro by Western blotting; assay type: biochemical
T1 construct: made in house; host or cells: Rosetta DE3 E. coli
T1 sequence (Q05823 1-741): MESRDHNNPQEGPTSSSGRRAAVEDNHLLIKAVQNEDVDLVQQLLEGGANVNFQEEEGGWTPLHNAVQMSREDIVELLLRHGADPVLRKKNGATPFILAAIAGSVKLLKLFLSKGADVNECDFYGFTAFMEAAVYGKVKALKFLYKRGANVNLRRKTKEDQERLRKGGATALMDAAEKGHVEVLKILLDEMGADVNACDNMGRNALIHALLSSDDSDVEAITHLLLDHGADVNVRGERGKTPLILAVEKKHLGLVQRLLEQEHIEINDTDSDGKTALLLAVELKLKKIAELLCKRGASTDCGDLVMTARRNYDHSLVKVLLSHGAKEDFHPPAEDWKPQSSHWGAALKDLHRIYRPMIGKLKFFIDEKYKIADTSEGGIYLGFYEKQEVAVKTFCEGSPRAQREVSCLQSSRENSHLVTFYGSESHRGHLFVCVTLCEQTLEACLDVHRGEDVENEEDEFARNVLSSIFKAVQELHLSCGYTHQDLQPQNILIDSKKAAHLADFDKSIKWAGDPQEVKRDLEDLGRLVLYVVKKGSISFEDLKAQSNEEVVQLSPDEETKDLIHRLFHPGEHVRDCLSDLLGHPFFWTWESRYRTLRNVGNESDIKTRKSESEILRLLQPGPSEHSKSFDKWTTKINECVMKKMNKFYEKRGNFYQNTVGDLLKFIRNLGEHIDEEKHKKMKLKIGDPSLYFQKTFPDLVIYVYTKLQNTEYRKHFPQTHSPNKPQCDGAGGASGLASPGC
Protocol: The position within 2 suitable for conjugation was then determined. […] Therefore, this position was derivatized and assessed for RNase L activation. […] A polyethylene glycol (PEG) linker terminated with a t-butyl ester was attached to yield 5 (FIG. 2C).

RNase L [2] = target: T1, RNase L; assay: FRET-based in vitro RNA cleavage assay (RNase L activation); assay type: biochemical; settings: for Relative RNA Cleavage (cleavage of fluorescently labeled RNA, RNase L activation): dose response, fluorescence normalized to 50 μM of 6
Excerpt: The four compounds with the highest confidence (enrichment scores>300 and copy number>25) were selected for further study. The compounds were re-synthesized without the encoding DNA tag and were studied for RNase L activation using a fluorescence-based in vitro assay, completed as previously described.^16 In brief, the assay uses an dually labeled RNA [5′ fluorescein (6-FAM) and 3′ black hole quencher (BHQ)] that harbors multiple preferred substates for RNase L (FIG. 2A).^16 In the presence of a binder that activates RNase L, the enzyme cleaves the RNA, resulting in an increased fluorescence signal. […] 2 and 3 are similar in structure, differing only by the first building block, phenylglycine in 2 and indoline in 3 (FIG. 2C).
FRET-Based In Vitro RNA Cleavage Assay. Samples were prepared as previously described.^3 Briefly, an RNA construct with multiple preferred RNase L cleavage sites^7 (5′ 6-FAM-[…]-3′ BHQ; 100 nM final concentration) was folded in 1× RNase L Assay Buffer (25 mM Tris-HCl, pH 7.4, and 100 mM NaCl) for 1 min at 95° C. followed by snap cooling on ice for 10 min. Following cooling, β-mercaptoethanol (7 mM), ATP (50 μM), and MgCl2 (1 mM) were added. Compound or DMSO (1%; vehicle) was added to the folded RNA, and the samples were incubated for 15 min. Recombinant GST-RNase L-His was then added to the solution (50 nM final concentration), affording a total volume of 33 μL. Technical triplicates (10 μL) were dispensed into 384-well low volume non-binding plate (Corning 4515), and the samples were incubated in the dark for 1 h. Fluorescence was measured using a Tecan infinite M1000 Pro plate reader using an excitation wavelength of 485 nm, emission wavelength of 520 nm, and gain of 100. Data are reported as “Relative RNA Cleavage”, normalizing fluorescence to the highest level of cleavage observed—upon addition of 50 μM of 6, which was set to 1.

RNase L [3] = target: T2, RNase L (Homo sapiens, UniProt Q05823, H672N); assay: Circular dichroism (CD) spectroscopy; assay type: binding; settings: 10 μM inactive RNase L, 75 μM compound
T2 construct: GST (N, cleaved yes); made in house; host or cells: BL21 AI Escherichia coli
T2 sequence (Q05823 1-741 H672N): T1 sequence (Q05823 1-741) with H672N
Protocol: (§1) To assess further the ability of this compound to bind to RNase L, saturation transfer difference (STD) nuclear magnetic resonance (NMR)^20 and circular dichroism (CD) spectroscopic studies were conducted with 6, a compound similar in structure to 5 and a potential intermediate in the synthesis of a resulting RiboTAC (FIGS. 2C & 6B-6C).
Circular Dichroism (CD) Spectroscopy. […] CD wavelength scans were completed from 190 to 260 nm. […] The spectra were plotted and compared in GraphPad Prism.

RNase L [4] = target: T2, RNase L; assay: Saturation transfer difference (STD) NMR; assay type: binding; settings: 3 μM protein, 300 μM compound
Protocol: as §1
(§2) Saturation Transfer Difference (STD) NMR. NMR spectra were acquired at 25° C. on a 600 MHz Bruker Avance III spectrometer equipped with a cryoprobe. Samples were prepared by drying 6 (120 nmol) to a solid and resuspending in deuterated DMSO (4 μL). […] The STD spectra were recorded as an interleaved experiment (n=2) with one experiment including a saturating pulse at −40 ppm for 2 s and one at 0.8 ppm for 2 s. Both spectra were processed with identical phasing before calculating the difference spectra (A) using TopSpin 4.0.6 (Bruker).

pre-miR-21 and RNase L = target: T3, pre-miR-21 and RNase L (Homo sapiens, UniProt Q05823, H672N); assay: Co-immunoprecipitation of pre-miR-21 and RNase L; assay type: binding; settings: WT 32P-pre-miR-21, inactive RNase L
T3 construct: GST (N, cleaved yes); made in house; host or cells: BL21 AI Escherichia coli
T3 sequence (Q05823 1-741 H672N): T1 sequence (Q05823 1-741) with H672N
Protocol: (§3) Co-Immunoprecipitation of pre-miR-2I and RNase L. Approximately 20,000 cpm of 32P 5′-end labeled WT or mutant pre-miR-21 or an RNA construct where the A-bulge was mutated to a base pair (5′-[…] UGGGCUGU-3′) was folded in 1× RNase L Assay Buffer for 1 min at 95° C. and cooled on ice for 10 min. Following cooling, β-mercaptoethanol (7 mM), ATP (50 μM), and MgCl2 (1 mM) were added to the solution. The solution was aliquoted, and compounds were incubated in solution for 15 min (1% DMSO final concentration). […] Beads were then washed with 1×PBS supplemented with 0.02% (v/v) Tween-20. Radioactive signal in the supernatant and associated with the beads was quantified by a Beckman Coulter LS6500 Liquid Scintillation Counter. Relative RNA enrichment was calculated by comparing the radioactive signal associated with beads compared to the total radioactive signal from the beads plus the supernatant.

[5] = target: T4, pre-miR-21 mutant and RNase L (Homo sapiens, UniProt Q05823, H672N); assay: Co-immunoprecipitation of mutant pre-miR-21 and RNase L; assay type: binding; settings: base paired mutant pre-miR-21, inactive RNase L
T4 construct: GST (N, cleaved yes); made in house; host or cells: BL21 AI Escherichia coli
T4 sequence (Q05823 1-741 H672N): T1 sequence (Q05823 1-741) with H672N
Protocol: as §3

lysozyme = assay: Saturation transfer difference (STD) NMR, control protein; assay type: binding; settings: 3 μM protein, 300 μM compound
Protocol: as §1, §2

[6] = test system: phosphorylation of extracellular signal-regulated kinase (ERK); assay: Western blot of pERK versus ERK (RTK signaling); assay type: cell-based; settings: Homo sapiens; CRISPR-Control sgRNA MDA-MB-231 cells; read-out: IC50 for inhibition of phosphorylation of ERK
Protocol: Quantification of Protein Levels by Western Blotting. MDA-MB-231 cells were treated as described in “Cell Culture.” After treatment, the medium was removed, and the cells were washed with 1× Dulbecco's phosphate-buffered saline (DPBS). Total protein was extracted using Mammalian Protein Extraction Reagent (M-PER, Thermo Scientific) according to the manufacturer's protocol. Protein concentration was measured using a Pierce Micro BCA Protein Assay kit (Fisher Scientific). Approximately 20 μg total protein was loaded onto a Tris-glycine gel with a 5% polyacrylamide stacking layer and a 10% polyacrylamide resolving layer. The gel was run at 140 V for ˜1.5 h in 1× Running Buffer (25 mM Tris base, pH 8.3, 190 mM glycine, and 0.1% (w/v) SDS). After electrophoresis, the protein was transferred to a PVDF membrane using 1× Transfer Buffer (25 mM Tris base, pH 8.3, 190 mM glycine, and 20% (v/v) methanol). The membrane was then washed with 1×TBST (Tris-buffered saline with 0.1% (v/v) Tween 20) and blocked in a solution of 5% (w/v) milk in 1×TBST for 30 min with shaking at room temperature. The membrane was then incubated overnight at 4° C. in a solution of primary antibody diluted in 1×TBST containing 5% (w/v) milk. […]

**Q.** How did the “RNase L dimerization” value (RNase L [1]) turn out when CCCCCCCCc1ccsc1-c1cccc(-c2ccc(CN(C)[C@H](C(=O)NC)c3ccccc3)cc2)c1 [Compound 2, (S)—N-methyl-2-(methyl((3′-(3-octylthiophen-2-yl)-[1,1′-biphenyl]-4-yl)methyl)amino)-2-phenylacetamide] was run?
**A.** induces RNase L dimerization

**Q.** And the “Relative RNA Cleavage (cleavage of fluorescently labeled RNA, RNase L activation)” value (RNase L [2])?
**A.** induced dose-dependent RNA cleavage to a greater extent than 1

**Q.** CNC(=O)[C@H](c1ccccc1)N(C)Cc1ccc(-c2cccc(-c3sccc3N)c2)cc1 [Compound 4, (S)-2-(((3′-(3-aminothiophen-2-yl)-[1,1′-biphenyl]-4-yl)methyl)-(methyl)amino)-N-methyl-2-phenylacetamide] was tested. Which “Relative RNA Cleavage (cleavage of fluorescently labeled RNA, RNase L activation)” value (RNase L [2]) did it give?
**A.** enhanced RNA cleavage compared to 2

**Q.** How did the “Relative RNA Cleavage (cleavage of fluorescently labeled RNA, RNase L activation)” value (RNase L [2]) turn out when CNC(=O)[C@H](c1ccccc1)N(C)Cc1ccc(-c2cccc(-c3sccc3NC(=O)CCOCCOCCOCCC(=O)OC(C)(C)C)c2)cc1 [Compound 5, tert-butyl (S)-3-(2-(2-(3-((2-(4′-((methyl(2-(methylamino)-2-oxo-1-phenylethyl)-amino)methyl)-[1,1′-biphenyl]-3-yl)thiophen-3-yl)amino)-3-oxopropoxy)ethoxy)-ethoxy) propanoate] was run?
**A.** retained RNase L activation activity

**Q.** Which results are given for CNC(=O)[C@H](c1ccccc1)N(C)Cc1ccc(-c2cccc(-c3sccc3NC(=O)CCOCCOCCOCCC(=O)O)c2)cc1 [Compound 6, (S)-3-(2-(2-(3-((2-(4′-((methyl(2-(methylamino)-2-oxo-1-phenylethyl)amino)methyl)-[1,1′-biphenyl]-3-yl)thiophen-3-yl)amino)-3-oxopropoxy)ethoxy)ethoxy)propanoic acid]?
**A.** Relative RNA Cleavage (RNase L [2]; 50 μM, highest level of cleavage observed, set to 1): 1; CD signal of RNase L upon addition of compound (RNase L [3]): increase in signal intensity at 220 nm; STD-NMR transfer of magnetization (RNase L [4]): transfer of magnetization from the compound to RNase L; co-immunoprecipitation of RNA with RNase L (pre-miR-21 and RNase L): Neither RNA was pulled down; co-immunoprecipitation of RNA with RNase L [5]: Neither RNA was pulled down; STD-NMR transfer of magnetization (lysozyme): no transfer was observed

**Q.** For CN1CCN(c2ccc3nc(-c4c(N)c5c(F)cccc5[nH]c4=O)[nH]c3c2)CC1 [Dovitinib, reference compound], which IC50 [6] is on record?
**A.** ~1000 nM
